Measured values taken from US20120010075A1 (priority 2009, published 2012).

System: Leptosphaeria nodorum (LEPTNO)
Assay: In vitro fungitoxicity of hydrazones with and without copper towards Leptosphaeria nodorum (Example 26)
Type: cell-based
Details: Parastagonospora nodorum, 72 h, copper-minus medium; test compound Concn. 0.05 μg/mL; 72 h at 25° C.; read-out: LEPTNO % Inhn. Minus Copper Observed

First: Cc1ccc(C(=O)N/N=C/c2ccc(Cl)cc2O)cc1 [Example 388]
Second: O=C(N/N=C/c1ccc(Cl)cc1O)c1ccc(F)cc1 [Example 390]
The inhibition of growth at 0.05 µg/mL of the first is higher: 17.2% for the first, 4.2% for the second.

Compared with `O=C(N/N=C/c1ccc(Cl)cc1O)c1cccc(F)c1` [Example 389], `O=C(N/N=C/c1ccc(Cl)cc1O)c1cccc([N+](=O)[O-])c1` [Example 393] is lower in inhibition of growth at 0.05 µg/mL: 7.7% for the first, 4.3% for the second.

Compared with `O=C(N/N=C/c1ccc(Cl)cc1O)c1ccc([N+](=O)[O-])cc1` [Example 394], `O=C(N/N=C/c1c(O)cccc1Cl)c1cccc([N+](=O)[O-])c1` [Example 404] is lower in inhibition of growth at 0.05 µg/mL: 8% for the first, 0% for the second.

Going from `O=C(N/N=C/c1ccc(Cl)cc1O)c1ccccc1O` [Example 395] to `O=C(N/N=C/c1ccc(Cl)cc1O)c1ccccc1C(F)(F)F` [Example 396], the inhibition of growth at 0.05 µg/mL falls from 8.2% to 0%.

First: Cc1cccc(C(=O)N/N=C/c2c(O)cccc2Cl)c1 [Example 398]
Second: O=C(N/N=C/c1c(O)cccc1Cl)c1cccc(F)c1 [Example 400]
The inhibition of growth at 0.05 µg/mL of the first is higher: 5.4% for the first, 0.5% for the second.

Going from `Cc1ccc(C(=O)N/N=C/c2c(O)cccc2Cl)cc1` [Example 399] to `O=C(N/N=C/c1c(O)cccc1Cl)c1ccc(F)cc1` [Example 401], the inhibition of growth at 0.05 µg/mL falls from 5.8% to 0%.

Compared with `O=C(N/N=C/c1c(O)cccc1Cl)c1cccc(Cl)c1` [Example 402], `O=C(N/N=C/c1c(O)cccc1Cl)c1ccccc1O` [Example 406] is higher in inhibition of growth at 0.05 µg/mL: 0% for the first, 6.7% for the second.

Going from `O=C(N/N=C/c1c(O)cccc1Cl)c1ccccc1C(F)(F)F` [Example 407] to `Cc1ccc(C(=O)N/N=C/c2c(O)cccc2Cl)c(O)c1` [Example 408], the inhibition of growth at 0.05 µg/mL rises from 0% to 8.4%.

Compared with `O=C(N/N=C/c1cc(Br)cc(F)c1O)c1ccccc1O` [Example 409], `O=C(N/N=C/c1cc(Br)cc(F)c1O)c1ccccc1` [Example 410] is lower in inhibition of growth at 0.05 µg/mL: 7.9% for the first, 1.9% for the second.

Compared with `Cc1ccc(C(=O)N/N=C/c2cc(Cl)cc(Br)c2O)cc1` [Example 413], `O=C(N/N=C/c1cc(Cl)cc(Br)c1O)c1ccc(F)cc1` [Example 415] is lower in inhibition of growth at 0.05 µg/mL: 18.9% for the first, 2.9% for the second.

Work on `O=C(N/N=C/c1cc(Cl)cc(Br)c1O)c1cccc(F)c1` [Example 414] yielded an inhibition of growth at 0.05 µg/mL of 14.6%.

Same assay, conditions: copper-plus medium (CuCl2 10 μM); test compound Concn. 0.05 μg/mL; 72 h at 25° C.

Compared with `Cc1ccc(C(=O)N/N=C/c2ccc(Cl)cc2O)cc1` [Example 388], `O=C(N/N=C/c1ccc(Cl)cc1O)c1ccc(F)cc1` [Example 390] is lower in “LEPTNO % Inhn. Plus Copper Observed” value: 98.1% for the first, 97.5% for the second.

Compared with `O=C(N/N=C/c1ccc(Cl)cc1O)c1cccc(F)c1` [Example 389], `O=C(N/N=C/c1ccc(Cl)cc1O)c1cccc([N+](=O)[O-])c1` [Example 393] is lower in “LEPTNO % Inhn. Plus Copper Observed” value: 97.6% for the first, 96.1% for the second.

First: O=C(N/N=C/c1ccc(Cl)cc1O)c1ccc([N+](=O)[O-])cc1 [Example 394]
Second: O=C(N/N=C/c1c(O)cccc1Cl)c1cccc([N+](=O)[O-])c1 [Example 404]
The “LEPTNO % Inhn. Plus Copper Observed” value of the first is higher: 95.9% for the first, 94.9% for the second.

Going from `O=C(N/N=C/c1ccc(Cl)cc1O)c1ccccc1O` [Example 395] to `O=C(N/N=C/c1ccc(Cl)cc1O)c1ccccc1C(F)(F)F` [Example 396], the “LEPTNO % Inhn. Plus Copper Observed” value rises from 93.9% to 95.5%.

First: Cc1cccc(C(=O)N/N=C/c2c(O)cccc2Cl)c1 [Example 398]
Second: O=C(N/N=C/c1c(O)cccc1Cl)c1cccc(F)c1 [Example 400]
The “LEPTNO % Inhn. Plus Copper Observed” value of the first is lower: 94.7% for the first, 97.9% for the second.

Compared with `Cc1ccc(C(=O)N/N=C/c2c(O)cccc2Cl)cc1` [Example 399], `O=C(N/N=C/c1c(O)cccc1Cl)c1ccc(F)cc1` [Example 401] is lower in “LEPTNO % Inhn. Plus Copper Observed” value: 97.1% for the first, 94.8% for the second.

First: O=C(N/N=C/c1c(O)cccc1Cl)c1cccc(Cl)c1 [Example 402]
Second: O=C(N/N=C/c1c(O)cccc1Cl)c1ccccc1O [Example 406]
The “LEPTNO % Inhn. Plus Copper Observed” value of the first is lower: 95.2% for the first, 96.1% for the second.

First: O=C(N/N=C/c1c(O)cccc1Cl)c1ccccc1C(F)(F)F [Example 407]
Second: Cc1ccc(C(=O)N/N=C/c2c(O)cccc2Cl)c(O)c1 [Example 408]
The “LEPTNO % Inhn. Plus Copper Observed” value of the first is higher: 92.0% for the first, 79.7% for the second.

Going from `O=C(N/N=C/c1cc(Br)cc(F)c1O)c1ccccc1O` [Example 409] to `O=C(N/N=C/c1cc(Br)cc(F)c1O)c1ccccc1` [Example 410], the “LEPTNO % Inhn. Plus Copper Observed” value rises from 96.3% to 97.6%.

Compared with `Cc1ccc(C(=O)N/N=C/c2cc(Cl)cc(Br)c2O)cc1` [Example 413], `O=C(N/N=C/c1cc(Cl)cc(Br)c1O)c1ccc(F)cc1` [Example 415] is lower in “LEPTNO % Inhn. Plus Copper Observed” value: 97.9% for the first, 96.1% for the second.

In the case of `O=C(N/N=C/c1cc(Cl)cc(Br)c1O)c1cccc(F)c1` [Example 414], the “LEPTNO % Inhn. Plus Copper Observed” value was 97.9%.

System: not given
Assay: not given
Details: not given

Compared with `Cc1ccc(C(=O)N/N=C/c2ccc(Cl)cc2O)cc1` [Example 388], `O=C(N/N=C/c1ccc(Cl)cc1O)c1ccc(F)cc1` [Example 390] is lower in melting point: 258 to 260 °C for the first, 226 to 228 °C for the second.

First: O=C(N/N=C/c1ccc(Cl)cc1O)c1cccc(F)c1 [Example 389]
Second: O=C(N/N=C/c1ccc(Cl)cc1O)c1cccc([N+](=O)[O-])c1 [Example 393]
The melting point of the first is lower: 218 to 222 °C for the first, 233 to 238 °C for the second.

First: O=C(N/N=C/c1ccc(Cl)cc1O)c1ccc([N+](=O)[O-])cc1 [Example 394]
Second: O=C(N/N=C/c1c(O)cccc1Cl)c1cccc([N+](=O)[O-])c1 [Example 404]
The melting point of the first is higher: 278 to 281 °C for the first, 269 to 270 °C for the second.

First: O=C(N/N=C/c1ccc(Cl)cc1O)c1ccccc1O [Example 395]
Second: O=C(N/N=C/c1ccc(Cl)cc1O)c1ccccc1C(F)(F)F [Example 396]
The melting point of the first is higher: 210 to 213 °C for the first, 197 to 200 °C for the second.

First: Cc1cccc(C(=O)N/N=C/c2c(O)cccc2Cl)c1 [Example 398]
Second: O=C(N/N=C/c1c(O)cccc1Cl)c1cccc(F)c1 [Example 400]
The melting point of the first is lower: 245 to 248 °C for the first, 257 to 259 °C for the second.

Compared with `Cc1ccc(C(=O)N/N=C/c2c(O)cccc2Cl)cc1` [Example 399], `O=C(N/N=C/c1c(O)cccc1Cl)c1ccc(F)cc1` [Example 401] is higher in melting point: 250 to 252 °C for the first, 266 to 268 °C for the second.

First: O=C(N/N=C/c1c(O)cccc1Cl)c1cccc(Cl)c1 [Example 402]
Second: O=C(N/N=C/c1c(O)cccc1Cl)c1ccccc1O [Example 406]
The melting point of the first is lower: 250 to 253 °C for the first, 277 to 280 °C for the second.

First: O=C(N/N=C/c1c(O)cccc1Cl)c1ccccc1C(F)(F)F [Example 407]
Second: Cc1ccc(C(=O)N/N=C/c2c(O)cccc2Cl)c(O)c1 [Example 408]
The melting point of the first is lower: 222 to 226 °C for the first, 273 to 276 °C for the second.

First: O=C(N/N=C/c1cc(Br)cc(F)c1O)c1ccccc1O [Example 409]
Second: O=C(N/N=C/c1cc(Br)cc(F)c1O)c1ccccc1 [Example 410]
The melting point of the first is higher: 297 to 299 °C for the first, 211 to 212 °C for the second.

First: Cc1ccc(C(=O)N/N=C/c2cc(Cl)cc(Br)c2O)cc1 [Example 413]
Second: O=C(N/N=C/c1cc(Cl)cc(Br)c1O)c1ccc(F)cc1 [Example 415]
The melting point of the first is higher: 279 to 282 °C for the first, 200 to 211 °C for the second.

In the case of `O=C(N/N=C/c1cc(Cl)cc(Br)c1O)c1cccc(F)c1` [Example 414], the melting point was 209 to 215 °C.

System: Phytophthora infestans
Assay: not given
Type: in vivo, Phytophthora infestans on tomato
Details: hydrazone 50 ppm with 50 μM CuCl2.2H2O, applied 24 h before inoculation; assessed 7 days after inoculation; tomato late blight

Compared with `Cc1ccc(C(=O)N/N=C/c2ccc(Cl)cc2O)cc1` [Example 388], `O=C(N/N=C/c1ccc(Cl)cc1O)c1ccc(F)cc1` [Example 390] is higher in “TLB % Control” value: 61.0% for the first, 95.0% for the second.

Compared with `O=C(N/N=C/c1ccc(Cl)cc1O)c1cccc(F)c1` [Example 389], `O=C(N/N=C/c1ccc(Cl)cc1O)c1cccc([N+](=O)[O-])c1` [Example 393] is lower in “TLB % Control” value: 95.0% for the first, 73.0% for the second.

First: O=C(N/N=C/c1ccc(Cl)cc1O)c1ccc([N+](=O)[O-])cc1 [Example 394]
Second: O=C(N/N=C/c1c(O)cccc1Cl)c1cccc([N+](=O)[O-])c1 [Example 404]
The “TLB % Control” value of the first is lower: 71.0% for the first, 97.0% for the second.

Going from `O=C(N/N=C/c1ccc(Cl)cc1O)c1ccccc1O` [Example 395] to `O=C(N/N=C/c1ccc(Cl)cc1O)c1ccccc1C(F)(F)F` [Example 396], the “TLB % Control” value falls from 76.0% to 49.0%.

Going from `Cc1cccc(C(=O)N/N=C/c2c(O)cccc2Cl)c1` [Example 398] to `O=C(N/N=C/c1c(O)cccc1Cl)c1cccc(F)c1` [Example 400], the “TLB % Control” value falls from 98.0% to 96.0%.

Going from `Cc1ccc(C(=O)N/N=C/c2c(O)cccc2Cl)cc1` [Example 399] to `O=C(N/N=C/c1c(O)cccc1Cl)c1ccc(F)cc1` [Example 401], the “TLB % Control” value rises from 88.0% to 98.0%.

First: O=C(N/N=C/c1c(O)cccc1Cl)c1cccc(Cl)c1 [Example 402]
Second: O=C(N/N=C/c1c(O)cccc1Cl)c1ccccc1O [Example 406]
The “TLB % Control” value of the first is higher: 100.0% for the first, 98.0% for the second.

First: O=C(N/N=C/c1c(O)cccc1Cl)c1ccccc1C(F)(F)F [Example 407]
Second: Cc1ccc(C(=O)N/N=C/c2c(O)cccc2Cl)c(O)c1 [Example 408]
The “TLB % Control” value of the first is lower: 70.0% for the first, 94.0% for the second.

Compared with `O=C(N/N=C/c1cc(Br)cc(F)c1O)c1ccccc1O` [Example 409], `O=C(N/N=C/c1cc(Br)cc(F)c1O)c1ccccc1` [Example 410] is lower in “TLB % Control” value: 98.0% for the first, 95.0% for the second.

First: Cc1ccc(C(=O)N/N=C/c2cc(Cl)cc(Br)c2O)cc1 [Example 413]
Second: O=C(N/N=C/c1cc(Cl)cc(Br)c1O)c1ccc(F)cc1 [Example 415]
The “TLB % Control” value of the first is lower: 94.0% for the first, 100.0% for the second.

For `O=C(N/N=C/c1cc(Cl)cc(Br)c1O)c1cccc(F)c1` [Example 414], the “TLB % Control” value was 90.0%.
